Test results taken from patent publication US7696246B2 (Ligand Pharmaceuticals Incorporated, priority 1999, dated 2010).

How the values were obtained:
human AR [1] = target: T1, human AR (Homo sapiens, UniProt P10275); experiment: Co-transfection assay, AR agonist activity (CV-1 cells, MTV-LUC reporter); format: cell-based; conditions: CV-1 cells; for EC50: agonist potency EC50; for AR Agonist CV-1 Cells Efficacy (%): percent maximal response relative to reference agonist DHT
T1 sequence (P10275 1-920): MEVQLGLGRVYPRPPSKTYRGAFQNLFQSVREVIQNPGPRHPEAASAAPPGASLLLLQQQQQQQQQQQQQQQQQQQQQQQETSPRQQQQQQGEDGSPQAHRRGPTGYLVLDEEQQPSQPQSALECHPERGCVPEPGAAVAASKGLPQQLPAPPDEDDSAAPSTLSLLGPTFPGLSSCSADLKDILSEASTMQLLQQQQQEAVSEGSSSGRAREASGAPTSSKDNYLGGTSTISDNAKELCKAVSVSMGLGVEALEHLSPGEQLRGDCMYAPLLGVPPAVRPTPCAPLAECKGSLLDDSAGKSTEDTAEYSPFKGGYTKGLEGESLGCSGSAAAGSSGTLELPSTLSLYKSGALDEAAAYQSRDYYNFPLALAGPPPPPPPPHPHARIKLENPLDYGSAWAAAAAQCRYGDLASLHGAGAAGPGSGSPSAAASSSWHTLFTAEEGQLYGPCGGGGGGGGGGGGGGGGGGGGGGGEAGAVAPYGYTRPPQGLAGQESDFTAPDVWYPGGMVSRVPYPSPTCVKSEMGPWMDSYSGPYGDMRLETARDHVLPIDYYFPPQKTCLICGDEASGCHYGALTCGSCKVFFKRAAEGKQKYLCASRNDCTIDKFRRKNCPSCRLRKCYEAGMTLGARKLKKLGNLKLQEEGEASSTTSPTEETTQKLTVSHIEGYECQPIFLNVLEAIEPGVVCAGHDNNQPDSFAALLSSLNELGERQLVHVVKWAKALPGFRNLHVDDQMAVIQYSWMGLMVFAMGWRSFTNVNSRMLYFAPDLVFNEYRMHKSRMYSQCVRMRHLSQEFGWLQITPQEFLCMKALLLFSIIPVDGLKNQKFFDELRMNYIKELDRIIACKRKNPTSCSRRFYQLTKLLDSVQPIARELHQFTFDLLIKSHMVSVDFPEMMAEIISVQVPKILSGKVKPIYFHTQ

human AR [2] = target: T1, human AR; experiment: Co-transfection assay, AR antagonist activity (CV-1 cells, in presence of DHT); format: cell-based; conditions: for AR Antagonist CV-1 Cells Efficacy (%): percent maximal inhibition, DHT at its EC50; for IC50: read-out: AR Antagonist CV-1 Cells Potency
human AR [3] = target: T1, human AR; experiment: AR whole cell competitive binding assay (COS-1 cells, 3H-DHT); conditions: 1 nM 3H-DHT, Cheng-Prusoff
Procedure: AR Binding: For the whole cell binding assay, COS-1 cells in 96-well microtiter plates containing DMEM-10% FBS were transfected as described above with the following plasmid DNA: pRShAR (2 ng/well), pRS-β-Gal (50 ng/well) and pGEM (48 ngcwell). Six hours after transfection, media was removed, the cells were washed with PBS and fresh media was added. The next day, the media was changed to DMEM-serum free to remove any endogenous ligand that might be complexed with the receptor in the cells.
Three replicates were used for each sample. […] The remaining media was removed, the cells were washed three times with PBS to remove unbound ligand, and cells were lysed with a Triton X-100-based buffer.
For the saturation analyses, the difference between the total binding and the nonspecific binding, normalized by the β-Gal rate, was defined as specific binding. […] The Ki values were determined by application of the Cheng-Prusoff equation to the IC50 values, where:
After correcting for non-specific binding, IC50 values were determined. […] The IC50 value was determined graphically from a log-logit plot of the data. The Ki values were determined by application of the Cheng-Prusoff equivuation to the IC50 values, the labeled ligand concentration and the Kd of the labeled ligand.

SMILES	EC50 (human AR [1])	AR Antagonist CV-1 Cells Efficacy (%) (human AR [2])	IC50 (human AR [2])	Ki (human AR [3])	AR Agonist CV-1 Cells Efficacy (%) (human AR [1])
O=c1cc(C(F)(F)F)c2cc(N3CCc4ccccc43)ccc2[nH]1 [Compound 347, 6-(1-Indolino)-4-trifluoromethyl-2(1H)-quinolinone]	> 10000 nM	89%	59 nM	970 nM	
O=c1cc(C(F)(F)F)c2cc(N3CCCc4ccccc43)ccc2[nH]1 [Compound 348, 6-(1-Tetrahydroquinolino)-4-trifluoromethyl-2(1H)-quinolinone]	> 10000 nM	81%	24 nM	62 nM	
CCC[C@@H]1CC[C@H](CCC)N1c1ccc2[nH]c(=O)cc(C(F)(F)F)c2c1 [Compound 366, 6-(2,5-cis-Dipropyl-1-pyrrolidino)-4-trifluoromethyl-2(1H)-quinolinone]	> 10000 nM	85%	31 nM	> 1000 nM	
CCCN(CC(F)(F)F)c1ccc2[nH]c(=O)cc(C)c2c1 [Compound 374, 6-(N-Propyl-N-2,2,2-trifluoroethyl)amino-4-methyl-2(1H)-quinolinone]	2.2 nM	na (na = not active (i.e. efficacy of <20 and potency of >10,000))	> 10000 nM	6.2 nM	77%
COC[C@H]1CCCN1c1ccc2[nH]c(=O)cc(C(F)(F)F)c2c1 [Compound 423, (R)-6-(2-Methoxymethyl-1-pyrrolidino)-4-trifluoromethyl-2(1H)-quinolinone]	86 nM	na (na = not active (i.e. efficacy of <20 and potency of >10,000))	> 10000 nM	22 nM	57%
O=c1cc(C(F)(F)F)c2cc(N3CCCC[C@H]3CCl)ccc2[nH]1 [Compound 432, (+)S-6-(2-Chloromethyl-1-piperidino)-4-trifluoromethyl-2(1H)-quinolinone]	8 nM	na (na = not active (i.e. efficacy of <20 and potency of >10,000))	> 10000 nM	32 nM	96%
O=c1cc(C(F)(F)F)c2cc(N3CCCC[C@@H]3CCl)ccc2[nH]1 [Compound 433, (−)R-6-(2-Chloromethyl-1-piperidino)-4-trifluoromethyl-2(1H)-quinolinone]	6.4 nM	na (na = not active (i.e. efficacy of <20 and potency of >10,000))	> 10000 nM	1.5 nM	120%
O=c1cc(C(F)(F)F)c2cc(N3CCCC[C@@H]3[C@@H](O)C(F)(F)F)ccc2[nH]1 [Compound 457, (+)-6-(2R-(1R-Hydroxy-2,2,2-trifluoroethyl)-1-piperidino)-4-trifluoromethyl-2(1H)-quinolinone]	3 nM	na (na = not active (i.e. efficacy of <20 and potency of >10,000))	> 10000 nM	3.2 nM	85%
O=c1cc(C(F)(F)F)c2cc(N(CC(F)(F)F)CC(F)(F)F)ccc2o1 [Compound 474, 6-(bis-N,N-2,2,2-Trifluoroethyl)amino-4-trifluoromethylcoumarin]	0.6 nM	na (na = not active (i.e. efficacy of <20 and potency of >10,000))	> 10000 nM	1.8 nM	73%
CC1(C)OC(=O)Nc2ccc(N(CC(F)(F)F)CC(F)(F)F)cc21 [Compound 490, 1,4-Dihydro-4,4-dimethyl-6-(bis-N,N-2,2,2-trifluoroethyl)amino-1,3-benzo [d-]oxazin-2-one]	12 nM	na (na = not active (i.e. efficacy of <20 and potency of >10,000))	> 10000 nM	12 nM	113%
CC1(C)CC(=O)Nc2ccc(N(CC(F)(F)F)CC(F)(F)F)cc21 [Compound 501, 3,4-Dihydro-4,4-dimethyl-6-(bis-N,N-2,2,2-trifluoroethyl)amino-2(1H)-quino-linone]	5.8 nM	na (na = not active (i.e. efficacy of <20 and potency of >10,000))	> 10000 nM	16 nM	110%
Cn1c(=O)cc(C(F)(F)F)c2ccc(NCC(F)(F)F)cc21 [Compound 532, 1-Methyl-7-(2,2,2-trifluoromethyl)amino-4-trifluoromethyl-2(1H)-quinolinone]	> 10000 nM	85%	73 nM	159 nM	
CC(C)Nc1ccc2c(C(F)(F)F)c(F)c(=O)[nH]c2c1 [Compound 535, 3-Fluoro-7-isopropylamino-4-trifluoromethyl-2(1H)-quinolinone]	> 10000 nM	76%	60 nM	> 1000 nM	
O=c1[nH]c2cc(NC3CCCC3)ccc2c(C(F)(F)F)c1F [Compound 536, 3-Fluoro-7-cyclopentylamino-4-trifluoromethyl-2(1H)-quinolinone]	> 10000 nM	76%	28 nM	188 nM	
Nc1cc2[nH]c(=O)cc(C(F)(F)F)c2cc1OCC(F)(F)F [Compound 571, 7-Amino-6-(2,2,2-trifluoroethoxy)-4-trifluoromethyl-2(1H)-quinolinone]	> 10000 nM	69%	14 nM	71 nM	
Nc1cc2[nH]c(=O)cc(C(F)(F)F)c2cc1C1CCCCC1 [Compound 582, 7-Amino-6-cyclohexyl-4-trifluoromethyl-2(1H)-quinolinone]	> 10000 nM	92%	26 nM	43 nM	
CCCOc1c(NCC(F)(F)F)ccc2[nH]c(=O)cc(C(F)(F)F)c12 [Compound 602, 6-(N-2,2,2-Trifluoroethyl)amino-5-propyloxy-4-trifluoromethyl-2(1H)-quinolinone]	> 10000 nM	85%	27 nM	45 nM	
CC(C)c1ccc2[nH]c(=O)cc(C(F)(F)F)c2c1 [Compound 615, 6-Isopropyl-4-trifluoromethyl-2(1H)-quinolinone]	2800 nM	82%	48 nM	56 nM	23%
O=c1cc(C(F)(F)F)c2cc(C3CCCCC3)ccc2[nH]1 [Compound 616, 6-Cyclohexyl-4-trifluoromethyl-2(1H)-quinolinone]	> 10000 nM	92%	17 nM	15 nM	
O=c1cc(C(F)(F)F)c2cc(C3=CCCCC3)ccc2[nH]1 [Compound 630, 6-Cyclohexenyl-4-trifluoromethyl-2(1H)-quinolinone]	221 nM	67%	13 nM	109 nM	30%
O=c1cc(C(F)(F)F)c2cc(C3=CCCC3)ccc2[nH]1 [Compound 632, 6-Cyclopentenyl-4-trifluoromethyl-2(1H)-quinolinone]	> 10000 nM	75%	36 nM	112 nM	
O=c1cc(C(F)(F)F)c2cc(C3=CCCCCC3)ccc2[nH]1 [Compound 633, 6-Cycloheptenyl-4-trifluoromethyl-2(1H)-quinolinone]	38 nM	51%	7.5 nM	97 nM	33%
CCC(CC)c1ccc2[nH]c(=O)cc(C(F)(F)F)c2c1 [Compound 647, 6-(1-Ethylpropyl)-4-trifluoromethyl-2(1H)-quinolinone]	233 nM	64%	31 nM	81 nM	42%
O=C1C=C(c2ccc3[nH]c(=O)cc(C(F)(F)F)c3c2)CCC1 [Compound 655, 6-(3-Oxo-1-)cyclohexenyl-4-trifluoromethyl-2(1H)-quinolinone]	> 10000 nM	70%	70 nM	> 1000 nM	
O=c1cc(C(F)(F)F)c2cc(C(O)(c3ccccc3)c3ccccc3)ccc2[nH]1 [Compound 659, 6-(1-Hydroxy-1,1-diphenyl)methyl-4-trifluoromethyl-2(1H)-quinolinone]	> 10000 nM	70%	44 nM	40 nM	
